From US20250011881A1, “MYC-HSF1 DUAL AMPLIFICATION AS A BIOMARKER FOR CANCER TREATMENT” (The Trustees of Indiana University, priority 2023, published 2025)
“And” between values parts separate entries of the source, which are not always exact repeats. Equal entries are not always repeated. Structures can show the parent of a compound that is named as a salt.

system: ovarian cancer cells with (OVCAR8, OVCAR4) or without (OVSAHO, CAOV3) MYC-HSF1 amplification; assay: Epigenetic inhibitor drug screen, cell viability (Cell Titer Blue); assay type: cell-based; conditions: not given

Molecule | Non Amp - AMP (POC) 10 uM
Cl.Cl.c1ccc([C@@H]2C[C@H]2NC2CCNCC2)cc1 [GSK-LSD1 2HCl] | 2.922 POC

same assay, conditions: 10 µM

Molecule | Non Amp - AMP (POC) 10 uM
COc1ccc(Cn2ccc3ccc(C(=O)NO)cc32)cc1 [PCI 34051] | −4.834 POC

same assay, conditions: 10 uM, 48 hrs; average relative cell viability (vs 1% DMSO) of non-amplified cells (OVSAHO, CAOV3) minus that of MYC-HSF1 amplified cells (OVCAR8, OVCAR4); positive = greater response in amplified cells

Molecule | Non Amp - AMP (POC) 10 uM
Cc1nc(C(=O)NCC(=O)O)c(O)c2ccc(Oc3ccccc3)cc12 [FG-4592 (ASP1517)] | −0.1816 POC
COC(=O)/C=C/C(=O)N(O)CCCCNCc1ccc(COC(=O)Nc2cccc3ccccc23)cc1 [Methylstat (hydrate), Methylstat] | −5.079 POC
CCCCCCCCCC(=O)N[C@@H](Cc1c[nH]c2ccccc12)C(=O)N[C@H](CC(N)=O)C(=O)N[C@@H](CC(=O)O)C(=O)N[C@@H]1C(=O)NCC(=O)N[C@@H](CCCN)C(=O)N[C@@H](CC(=O)O)C(=O)N[C@H](C)C(=O)N[C@@H](CC(=O)O)C(=O)NCC(=O)N[C@H](CO)C(=O)N[C@@H]([C@H](C)CC(=O)O)C(=O)N[C@@H](CC(=O)c2ccccc2N)C(=O)O[C@@H]1C [Daptomycin] | 3.207 POC
CC(C)OC(=O)CCC/C=C\C[C@@H]1[C@@H](CC[C@@H](O)CCc2ccccc2)[C@H](O)C[C@@H]1O [Latanoprost] | −8.842 POC
CCN(CC)C(=O)/C(C#N)=C/c1cc(O)c(O)c([N+](=O)[O-])c1 [Entacapone] | −6.777 POC
Cc1cc(Cl)ccc1OCCCC(=O)NO [Droxinostat] | −21.53 POC
O=C(CCCCCCC(=O)Nc1ccc([C@H]2O[C@@H](CSc3nc(-c4ccccc4)c(-c4ccccc4)o3)C[C@@H](c3ccc(CO)cc3)O2)cc1)NO [Tubacin] | −15.59 POC
Nc1ccccc1NC(=O)CCCCCC(=O)Nc1ccccc1 [PAOA] | 29.57 POC
O=c1c(-n2ccnn2)c[nH]n1-c1cc(N2CCOCC2)ncn1 [Molidustat (BAY85-3934), Molidustat] | −4.287 POC
Cn1cc(CCn2cnc(-c3cnn(C)c3)c2-c2ccc(C#N)cc2)cn1 [BAZ2-ICR] | 13.57 POC
NC(=O)c1cccc(NC(=O)/C=C/c2c[nH]c3ccccc23)c1 [RSC-133] | 26.08 POC
COC1CCN(C(=O)c2cc(Cc3n[nH]c(=O)c4ccccc34)ccc2F)CC1 [AZD2461] | 9.593 POC
Nc1ncnc2c1ncn2[C@@H]1O[C@H](C[C@@H](N)CC[C@H](N)C(=O)O)[C@@H](O)[C@H]1O [Sirefungin] | 12.42 POC
COc1cc2c(NC3CCN(C4CCCCC4)CC3)nc(N3CCCN(C(C)C)CC3)nc2cc1OCCCN1CCCCC1 [UNC 0646] | 45.25 POC
O=c1oc2c(O)c(O)cc3c(=O)oc4c(O)c(O)cc1c4c23 [Ellagic acid] | 13.8 POC
CN(C)CCCCC(=O)Nc1ccc(NC(=S)NC(=O)c2ccc(C(C)(C)C)cc2)cc1.Cl [Tenovin-6 (hydrochloride), Tenovin-6] | −3.503 POC
Cl.Clc1ccc(-c2csc(NN=C3CCCC3)n2)cc1 [CPTH2 (hydrochloride)] | 6.251 POC
COC(=O)c1ccc(N2CCN(C)CC2)c(NC(=O)c2cccc(OC)c2)c1 [WDR5 0103] | 1.921 POC

Molecule | Non Amp - AMP (POC) 10 uM
Br.CC1CC/C(=N\Nc2nc(-c3ccc(Cl)cc3)cs2)C1 (stereo not drawn) [CPTH6 (hydrobromide)] | 13.3 POC
CCS(=O)(=O)c1cccc(-c2cc(C(=O)NC3CCN(C)CC3)c(C)c3[nH]c4ncc(C)cc4c23)c1 [TAK-901] | 3.351 POC
CC(C)N(CCCNC(=O)Nc1ccc(C(C)(C)C)cc1)C[C@H]1O[C@@H](n2ccc3c(N)ncnc32)[C@H](O)[C@@H]1O [EPZ004777] | 6.632 POC
CCn1c(C(=O)N(C2CC2)C2CC2)cc2c3c(ncn3C)c(Nc3cc(C)n(C)n3)nc21 [BMS-911543] | 1.85 POC
CNCCN1CCC(OCc2ccccc2)CC1.Cl.Cl [MS049 (hydrochloride)] | −3.654 POC
O=C(O)CNC(=O)c1nc(Cl)c2ccccc2c1O [FG2216] | −1.816 POC
Nc1nc(OCc2cc(Br)cs2)c2[nH]cnc2n1 [Lomeguatrib] | 9.851 POC
CCc1cccc(CC)c1NC(=O)N1Cc2n[nH]c(NC(=O)c3ccc(N4CCN(C)CC4)cc3)c2C1 [PHA-680632] | −11.28 POC
N#Cc1c(-c2ccccc2)cc(-c2cc(Br)ccc2O)[nH]c1=O [TCS PIM-1 1] | 0.7424 POC
CC(C)N(CCCNC(=O)Nc1ccc(C(C)(C)C)cc1)C[C@H]1O[C@@H](n2cc(Br)c3c(N)ncnc32)[C@H](O)[C@@H]1O [SGC 0946] | 1.268 POC
N#Cc1ccc(-c2csc(NN=C3CCCC3)n2)cc1 [Remodelin] | 13.34 POC
AZD1152 | −6.485 POC
Cn1cc(C(=O)Nc2ccc3c(c2)OCCO3)c2ccccc2c1=O [CeMMEC1] | −1.809 POC
COc1cc2c(cc1O)CC[C@@H]1[C@@H]2CC[C@]2(C)[C@@H](O)CC[C@@H]12 [2-Methoxyestradiol (2-MeOE2), 2-Methoxyestradiol] | 23.41 POC
C#Cc1cccc(Nc2ncnc3cc(OC)c(OCCCCCCC(=O)NO)cc23)c1 [CUDC-101] | 28.26 POC
CC(C(=O)Nc1cccc(/N=C/c2c(O)ccc3ccccc23)c1)c1ccccc1 (stereo not drawn) [Salermide] | −13.88 POC
Cc1cnc(Nc2ccc(N3CCN(C)CC3)cc2)nc1Nc1cccc(S(=O)(=O)NC(C)(C)C)c1 [TG101209] | 15.1 POC

same assay, conditions: 10 uM, 48 hrs; average relative cell viability (vs 1% DMSO) of non-amplified cells (OVSAHO, CAOV3) minus that of MYC-HSF1 amplified cells (OVCAR8, OVCAR4); positive = greater response in amplified cells; 10 µM

Molecule | Non Amp - AMP (POC) 10 uM
CCOC(=O)CCNc1cc(N2CCc3ccccc3CC2)nc(-c2ccccn2)n1.Cl [GSK J4 HCl] | −10.21 POC
C[C@@H]1CCN(C(=O)CC#N)C[C@@H]1N(C)c1ncnc2[nH]ccc12 [Tofacitinib (CP-690550, Tasocitinib), Tofacitinib] | −2.781 POC
CC[C@@H]1C(=O)N(C)c2cnc(Nc3ccc(C(=O)NC4CCN(C)CC4)cc3OC)nc2N1C1CCCC1 [BI-2536] | 15.69 POC
Clc1ccc(N/N=C(\c2ccccc2)c2ccccn2)nc1 [JIB-04] | 13.4 POC and 8.34 POC
CCCCCCCCCCCCCCCc1cccc(O)c1C(=O)O [Anacardic acid] | 17.46 POC
Nc1ccccc1NC(=O)c1ccc(CNc2nccc(-c3cccnc3)n2)cc1 [Mocetinostat] | 49.31 POC
O=Nc1ccc(O)c2ncccc12 [5-Nitroso-8-quinolinol] | 9.462 POC
CCOC(=O)NCCCC(=O)NCCc1ccccc1 [CAY10683, Santacruzamate A] | 18.98 POC
Cl.O=C([C@@H](Cc1cccc(C(F)(F)F)c1)NS(=O)(=O)c1cc(F)c2c(c1)CCNC2)N1CCCC1 [(R)-PFI-2 (hydrochloride)] | 19.35 POC
Nc1ccc(S(=O)(=O)NCCc2ccccc2)cc1 [C-7280948] | 13.45 POC
CN(C)CCCNC(=O)c1ccc(-c2cc(O)c3ncccc3c2)cc1 [ML-324] | 7.484 POC

same assay, conditions: 10 uM, 48 hrs; average relative cell viability (vs 1% DMSO) of non-amplified cells (OVSAHO, CAOV3) minus that of MYC-HSF1 amplified cells (OVCAR8, OVCAR4); positive = greater response in amplified cells; HCl, 10 µM

Molecule | Non Amp - AMP (POC) 10 uM
Nc1ccn([C@@H]2O[C@H](CO)[C@@H](O)C2(F)F)c(=O)n1 [Gemcitabine HCl] | 8.319 POC

same assay, conditions: 10 uM, 48 hrs; average relative cell viability (vs 1% DMSO) of non-amplified cells (OVSAHO, CAOV3) minus that of MYC-HSF1 amplified cells (OVCAR8, OVCAR4); positive = greater response in amplified cells; listed as Anacardic Acid, 10 µM

Molecule | Non Amp - AMP (POC) 10 uM
CCCCCCCCCCCCCCCc1cccc(O)c1C(=O)O [Anacardic acid] | 5.093 POC

same assay, conditions: 10 uM, 48 hrs; average relative cell viability (vs 1% DMSO) of non-amplified cells (OVSAHO, CAOV3) minus that of MYC-HSF1 amplified cells (OVCAR8, OVCAR4); positive = greater response in amplified cells; listed as BI 2536, 10 µM

Molecule | Non Amp - AMP (POC) 10 uM
CC[C@@H]1C(=O)N(C)c2cnc(Nc3ccc(C(=O)NC4CCN(C)CC4)cc3OC)nc2N1C1CCCC1 [BI-2536] | −3.682 POC

same assay, conditions: 10 uM, 48 hrs; average relative cell viability (vs 1% DMSO) of non-amplified cells (OVSAHO, CAOV3) minus that of MYC-HSF1 amplified cells (OVCAR8, OVCAR4); positive = greater response in amplified cells; listed as C7280948, 10 µM

Molecule | Non Amp - AMP (POC) 10 uM
Nc1ccc(S(=O)(=O)NCCc2ccccc2)cc1 [C-7280948] | 0.5735 POC

same assay, conditions: 10 uM, 48 hrs; average relative cell viability (vs 1% DMSO) of non-amplified cells (OVSAHO, CAOV3) minus that of MYC-HSF1 amplified cells (OVCAR8, OVCAR4); positive = greater response in amplified cells; listed as GSK-J4 (hydrochloride), 10 µM

Molecule | Non Amp - AMP (POC) 10 uM
CCOC(=O)CCNc1cc(N2CCc3ccccc3CC2)nc(-c2ccccn2)n1.Cl [GSK J4 HCl] | −13.06 POC

same assay, conditions: 10 uM, 48 hrs; average relative cell viability (vs 1% DMSO) of non-amplified cells (OVSAHO, CAOV3) minus that of MYC-HSF1 amplified cells (OVCAR8, OVCAR4); positive = greater response in amplified cells; listed as ML324, 10 µM

Molecule | Non Amp - AMP (POC) 10 uM
CN(C)CCCNC(=O)c1ccc(-c2cc(O)c3ncccc3c2)cc1 [ML-324] | 4.315 POC

same assay, conditions: 10 uM, 48 hrs; average relative cell viability (vs 1% DMSO) of non-amplified cells (OVSAHO, CAOV3) minus that of MYC-HSF1 amplified cells (OVCAR8, OVCAR4); positive = greater response in amplified cells; listed as Mocetinostat (MGCD0103, MG0103), 10 µM

Molecule | Non Amp - AMP (POC) 10 uM
Nc1ccccc1NC(=O)c1ccc(CNc2nccc(-c3cccnc3)n2)cc1 [Mocetinostat] | 36.88 POC

same assay, conditions: 10 uM, 48 hrs; average relative cell viability (vs 1% DMSO) of non-amplified cells (OVSAHO, CAOV3) minus that of MYC-HSF1 amplified cells (OVCAR8, OVCAR4); positive = greater response in amplified cells; listed as Santacruzamate A (CAY10683), 10 µM

Molecule | Non Amp - AMP (POC) 10 uM
CCOC(=O)NCCCC(=O)NCCc1ccccc1 [CAY10683, Santacruzamate A] | −0.9653 POC

same assay, conditions: listed as PCI-34051, 10 µM

Molecule | Non Amp - AMP (POC) 10 uM
COc1ccc(Cn2ccc3ccc(C(=O)NO)cc32)cc1 [PCI 34051] | −22.68 POC
